Among the test systems are SK-MEL-2 melanoma; HOP-62 NSCLC; SN12C renal; MALME-3M melanoma; NCI-H23 lung; HT29 colon; OVCAR-4 ovarian; OVCAR-5 ovarian.
Experiment in all cases: DTP human tumour cell line panel, 48 h

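These data come from cells grown in 96-well plates and exposed to compound for 48 hours at five concentrations. Here, GI50 denotes the concentration required for 50% inhibition of growth. Definition used: TGI = concentration required for complete inhibition of growth.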

The term TGI denotes the concentration giving total growth inhibition. Low readings indicate greater sensitivity of the cells, high ones lower sensitivity of the cells. Turning to `O=C(O)/C(Cl)=C(Cl)/C=N/NC(=O)c1cc2ccccc2cc1O`, the TGI in the experiment with SK-MEL-2 melanoma is 79.3 µM; in the experiment on HOP-62 NSCLC it was above 100 µM; in the experiment on SN12C renal it was above 100 µM; with MALME-3M melanoma, above 100 µM; with NCI-H23 lung it was 41.2 µM; in the experiment on HT29 colon it was above 100 µM. In addition, the TGI in the experiment on OVCAR-4 ovarian was found to be 72 µM; in the experiment with OVCAR-5 ovarian it was 61.5 µM.
For `O=C(Nc1ccc([N+](=O)[O-])cc1[N+](=O)[O-])C(=O)C(C(=O)c1ccc(Cl)c(Cl)c1)C1OC(=O)c2ccccc21` (stereo not drawn), the TGI in the experiment on HOP-62 NSCLC was 36.9 µM; with SN12C renal, 85 µM; with MALME-3M melanoma it was above 100 µM; in the experiment on NCI-H23 lung, 39.8 µM; in the experiment on HT29 colon it was 71.1 µM; in the experiment on OVCAR-4 ovarian, above 100 µM. The compound further showed a TGI in the experiment on OVCAR-5 ovarian of 65.9 µM.
By GI50 is commonly meant the concentration that inhibits growth by half. Take `CC(=O)[CH-]C(=O)c1ccccc1.CC(=O)[CH-]C(=O)c1ccccc1.CC[C@H](/C=C/C(C)[C@H]1CCC2[C@@H]3CC=C4C[C@@H]([O-])CC[C@]4(C)C3CC[C@@]21C)C(C)C.CC[C@H](/C=C/C(C)[C@H]1CCC2[C@@H]3CC=C4C[C@@H]([O-])CC[C@]4(C)C3CC[C@@]21C)C(C)C.Cl.[Ti+4]` (stereo partly drawn): the GI50 with SK-MEL-2 melanoma is above 25 µM; in the experiment on HOP-62 NSCLC, above 25 µM; in the experiment with SN12C renal, above 25 µM; in the experiment on MALME-3M melanoma, 10.5 µM; in the experiment on NCI-H23 lung, above 25 µM; with HT29 colon it was above 25 µM. The GI50 in the experiment with OVCAR-4 ovarian and in the experiment on OVCAR-5 ovarian was above 25 µM in each case. Moreover, the TGI with SK-MEL-2 melanoma, in the experiment on HOP-62 NSCLC, in the experiment on SN12C renal, with MALME-3M melanoma, in the experiment with NCI-H23 lung and with HT29 colon was above 25 µM each time. Further, the TGI in the experiment with OVCAR-4 ovarian and with OVCAR-5 ovarian was above 25 µM in each case.
Take `CCOC(=O)C1=C(O)C(=O)c2ccoc2C1=O`: the TGI in the experiment with SK-MEL-2 melanoma, in the experiment with HOP-62 NSCLC, in the experiment with SN12C renal, in the experiment on MALME-3M melanoma, in the experiment with NCI-H23 lung and in the experiment on HT29 colon was above 100 µM throughout. Further, the TGI in the experiment on OVCAR-4 ovarian and with OVCAR-5 ovarian was above 100 µM each time.
Consider `O=C1NC2C3CC(OCc4ccccc4)(OCc4ccccc4)C2OC3O1` (stereo not drawn), for which the TGI in the experiment on SK-MEL-2 melanoma, in the experiment with HOP-62 NSCLC, with SN12C renal, in the experiment on MALME-3M melanoma, with NCI-H23 lung and with HT29 colon was above 50 µM throughout. This compound also displayed a TGI with OVCAR-5 ovarian above 50 µM.
Regarding `COC(=O)C12C34C=CC5(CCC6(C=CC1(CC3)O6)C52C(=O)OC)O4` (stereo not drawn), the TGI in the experiment with SK-MEL-2 melanoma, in the experiment on HOP-62 NSCLC, with SN12C renal, in the experiment on MALME-3M melanoma, with NCI-H23 lung and in the experiment on HT29 colon was above 100 µM in each case. The TGI in the experiment with OVCAR-4 ovarian and with OVCAR-5 ovarian was above 100 µM each time.
Consider `O=C(COC(=O)c1cccc2c(=O)c3ccccc3[nH]c12)Nc1ccc(Cl)cc1`, for which the concentration for total growth inhibition (TGI) in the experiment with HOP-62 NSCLC was 78.5 µM; in the experiment on SN12C renal, above 100 µM; in the experiment on MALME-3M melanoma it was above 100 µM; with NCI-H23 lung it was 64.2 µM; in the experiment on HT29 colon it was above 100 µM; in the experiment on OVCAR-4 ovarian, above 100 µM.
As for `C=CC(=O)Nc1ccccc1CC(c1c[nH]c2ccccc12)c1c[nH]c2ccccc12`, the TGI in the experiment on SK-MEL-2 melanoma worked out at 32.7 µM; in the experiment with HOP-62 NSCLC, 35.1 µM; with SN12C renal, 30.6 µM; in the experiment with MALME-3M melanoma it was 33.3 µM; in the experiment on NCI-H23 lung it was 38.2 µM; with HT29 colon it was 37.5 µM.
Take `O=NN1CCN=C1c1ccc([N+](=O)[O-])cc1`: the TGI in the experiment on HOP-62 NSCLC, in the experiment on SN12C renal, with MALME-3M melanoma, in the experiment with NCI-H23 lung, in the experiment with HT29 colon and in the experiment on OVCAR-4 ovarian was above 100 µM in each case. Besides, the TGI in the experiment with OVCAR-5 ovarian is above 100 µM.
As to `CCOC(=O)/C(C#N)=C\Sc1ccccc1`, the TGI in the experiment with SK-MEL-2 melanoma was 74.3 µM; in the experiment on HOP-62 NSCLC it was 86.5 µM; in the experiment on SN12C renal, 31.7 µM; in the experiment with NCI-H23 lung it was above 100 µM; in the experiment on HT29 colon it was 84.4 µM; with OVCAR-4 ovarian it was above 100 µM. For the same compound, in the experiment on OVCAR-5 ovarian, the TGI was determined as 58.6 µM.
For the compound `NCCCC(N=Cc1nc(-c2ccccc2)oc1O)C(=O)O` (stereo not drawn), the TGI with SK-MEL-2 melanoma, with HOP-62 NSCLC, with SN12C renal, in the experiment with MALME-3M melanoma, in the experiment on NCI-H23 lung and in the experiment with HT29 colon was above 100 µM throughout. Also, the TGI in the experiment on OVCAR-4 ovarian and with OVCAR-5 ovarian was above 100 µM in each case.
On to `COc1ccc(NC(=O)c2oc3cc(O)ccc3c(=O)c2C)c([N+](=O)[O-])c1`, for which the TGI in the experiment on SK-MEL-2 melanoma, with HOP-62 NSCLC, with SN12C renal, in the experiment with MALME-3M melanoma, with NCI-H23 lung and in the experiment with HT29 colon was above 100 µM each time. Moreover, the TGI in the experiment on OVCAR-4 ovarian and with OVCAR-5 ovarian was above 100 µM throughout.
`O=C1C(Cl)=C(Cl)C(=O)N1c1cccc(C(F)(F)F)c1`: the TGI in the experiment on SK-MEL-2 melanoma, in the experiment on HOP-62 NSCLC, in the experiment with SN12C renal, in the experiment on MALME-3M melanoma, with NCI-H23 lung and in the experiment on HT29 colon was above 100 µM in each case. The concentration for total growth inhibition (TGI) in the experiment with OVCAR-4 ovarian and with OVCAR-5 ovarian was above 100 µM in each case.
For the compound `CCCCCCCCCCCCCCCCCCOCC(C[N+]1(C)CCC(O)CC1)OCC` (stereo not drawn), the TGI in the experiment with SK-MEL-2 melanoma is 20.9 µM; with HOP-62 NSCLC, 16.7 µM; in the experiment on SN12C renal, 15.4 µM; with MALME-3M melanoma it was 28.8 µM; with NCI-H23 lung, 16 µM; in the experiment with HT29 colon, 14.9 µM. In the experiment with OVCAR-4 ovarian, this compound had a TGI of 18 µM.
With `CC1(C2COC(=O)C2)SCCCS1` (stereo not drawn), the TGI in the experiment on SK-MEL-2 melanoma, in the experiment with HOP-62 NSCLC, in the experiment with SN12C renal, in the experiment with MALME-3M melanoma, in the experiment on NCI-H23 lung and in the experiment on HT29 colon was above 100 µM each time. In the experiment on OVCAR-4 ovarian, this compound gave a TGI above 100 µM.

(Values after PubChem BioAssay (NCI).)
